Results as given in article PMC10085697 (2023).

What was measured:
[1] = system: Mango IV (RNA, aptamer) GCACGUACCGAGGGAGUGGUGAGGAUGAGGCGAGUACGUGC; assay: absorbance shift and fluorescence light-up; settings: 140 mM KCl; 10 mM Tris-HCl pH 7.5, 5 μM dye, 5 μM RNA
[2] = system: Mango II (RNA, aptamer) GCACGUACGAAGGAGAGGAGAGGAAGAGGAGAGUACGUGC; assay: absorbance shift and fluorescence light-up; settings: 140 mM KCl; 10 mM Tris-HCl pH 7.5, 5 μM dye, 5 μM RNA
[3] = system: ds_Mango II (RNA, aptamer) GGUGUGGGGCACGUACGAAGGAGAGGAGAGGAAGAGGAGAGUACGUGCCCCACA; assay: fluorescence light-up; settings: 140 mM KCl
[4] = system: Control G4 RNA (utr-z) (RNA, G4) GGCGGCGGCAGUGGCGGCGG; assay: fluorescence light-up; settings: 140 mM KCl; 10 mM Tris-HCl pH 7.5, 5 μM dye, 5 μM RNA
[5] = system: Broccoli (RNA, aptamer) GGGAGACGGUCGGGUCCAGAUAUUCGUAUCUGUCGAGUAGAGUGUGGGCUC; assay: absorbance and fluorescence titration; settings: 140 mM KCl; 10 mM Tris-HCl pH 7.5
[6] = system: Mango II (RNA, aptamer) GCACGUACGAAGGAGAGGAGAGGAAGAGGAGAGUACGUGC; assay: fluorescence light-up titration (Monolith NT.115); settings: 140 mM KCl; 10 mM Tris-HCl pH 7.5, 0.05% Tween-20, 25 °C, 10 nM dye; rough evaluation
[7] = system: Broccoli (RNA, aptamer) GGGAGACGGUCGGGUCCAGAUAUUCGUAUCUGUCGAGUAGAGUGUGGGCUC; assay: fluorescence titration; settings: affinity called insignificant compared to that of Mango II; highest concentration not stated
[8] = system: Mango IV (RNA, aptamer) GCACGUACCGAGGGAGUGGUGAGGAUGAGGCGAGUACGUGC; assay: fluorescence light-up titration (Monolith NT.115); settings: 140 mM KCl; 10 mM Tris-HCl pH 7.5, 0.05% Tween-20, 25 °C, 10 nM dye; rough evaluation

Compound	binding [1]	binding [2]	binding [4]	other results
O=C(CCCC[C@@H]1SC[C@@H]2NC(=O)N[C@@H]21)NCCOCCOCCOCCn1cc(C[n+]2c(/C=C/c3cc4c5c(c3)CCCN5CCC4)sc3ccccc32)nn1	yes	yes	–	–
CC1=CC(C)(C)N(C)c2ccc(/C=C/c3sc4ccccc4[n+]3Cc3cn(CCOCCOCCOCCNC(=O)CCCC[C@@H]4SC[C@@H]5NC(=O)N[C@@H]54)nn3)cc21	yes	yes	–	–
CC1=N/C(=C\c2cc(F)c(O)c(F)c2)C(=O)N1C	–	–	–	binding [5]: yes

Continued, in another order:

binding [1]	binding [2]	binding [4]	Compound	other results
yes	yes	yes	CN1C=CC(=Cc2sc3ccccc3[n+]2CC(=O)NCCOCCOCCOCCNC(=O)CCCC[C@@H]2SC[C@@H]3NC(=O)N[C@@H]32)c2ccccc21	binding ([3]; buffer stated for 4b only): yes
yes	yes	yes	CN1C=CC(=Cc2sc3ccccc3[n+]2Cc2cn(CCOCCOCCOCCNC(=O)CCCC[C@@H]3SC[C@@H]4NC(=O)N[C@@H]43)nn2)c2ccccc21	–
–	–	weak	CN(C)c1ccc(/C=C/c2sc3ccccc3[n+]2Cc2cn(CCOCCOCCOCCNC(=O)CCCC[C@@H]3SC[C@@H]4NC(=O)N[C@@H]43)nn2)cc1	KD [6]: 80 ± 60 nM; binding ([3]; 20 mM sodium phosphate pH 7.2, 0.05% Tween-20, 1 μM): yes; binding [7]: no; KD [8]: 600 ± 400 nM
